Assay results: US12721815B2, “Freeze-dried exosome composition and uses thereof” (AVECIN-Biopharma Oy, priority 2022, dated 2026)

How the values were obtained:
human dermal fibroblasts [1] = test: Collagen production, human collagen type I ELISA kit; assay type: cell-based; conditions: incubated 48 h, FIG. 6(c)
Protocol: Also, collagen production was measured using a human collagen type I ELIZA kit. Human dermal fibroblasts were incubated with the exosome samples for 48 h. 100 μl of cell culture media was collected from each sample and incubated with 100 μl of biotinylated detection antibody for 1 h at 37° C. Samples were then washed and incubated with 100 μl of horseradish peroxidase (HRP) conjugate working solution. Stop solution was added and optical density was measured at 450 nm with a Plate Reader.

human dermal fibroblasts [2] = test: MTT assay (fibroblast proliferation); assay type: cell-based; conditions: FIG. 6(b)
Protocol: The effect of the exosomes on the proliferation of human dermal fibroblasts was measured by a 3-[4.5-Dimethylthiazol-2-yl]-2.5-diphenyltetrazolium bromide ([…]; Life technologies) assay. Briefly, human dermal fibroblast cells are seeded in 96-well plates at an initial density of 5×10^3 cells/well for 24 h and then are treated with 100 μg/mL of exosomes for 48 hours. Cells are incubated with 0.5 mg/mL of MTT for 3-5 h and then 100 μl DMSO is added to each well and the optical density is measured at 540 nm.

human dermal fibroblasts [3] = test: Wound scratch assay (relative wound density); assay type: cell-based; conditions: FIG. 6(a)
Protocol: Human dermal fibroblasts are seeded in 96 well plates at 2.4×10^4 cells/well. A cell-free area is then created in a confluent monolayer by physical exclusion through mechanical damage using a […] pipette tip. The culture medium is replaced immediately with a fresh 0.5% EV-free serum-supplemented culture medium containing 100 μg/ml of each exosome preparation tested. Three positions per scratch are imaged for 48 hours. Relative wound density is analysed by measuring the wound area over the healing time. All scratch assays are performed in triplicate.

[4] = Lyophilization of exosomes with different cryoprotectants of Table 1 (BCA kit, TEM, NTA); assay type: physicochemical; conditions: FIG. 4
Protocol: The protein concentration of isolated exosomes is measured by BCA protein assay kit. Isolated exosomes were characterized by fluorescent staining, Transmission electron microscopy (TEM), and Nanoparticle Tracking Analysis (NTA).
Different cryoprotectant components namely trehalose, mannitol, sorbitol, sucrose, glucose and HA (both low Mw (LW) and high Mw (HMW)), either alone or in combination with HA or glycine (see Table 1) were tested for exosome viability outcome after lyophilization. PBS (290 mOsm/kg) was used as the solvent. The LMW HA used for the examples described herein is LMW HA having a Mw lower than 10 kDa. Isolated exosomes (1 mg/ml) were dissolved in PBS solution and then mixed with cryoprotectant solution in the ratio of 1 part exosomes to 1, 3, 5, or 10 parts of cryoprotectant.
Cryoprotectant solutions were prepared using phosphate-buffered saline (PBS) while the overall osmolality of the lyophilization solutions was maintained at 290 mOsm/kg. Isolated exosomes (10^10-10^11 particle/ml) were suspended in cryoprotectant solution ranging from 1 part of exosome suspension with 3 parts of cryoprotectant solution, to, 3 parts of exosome suspension with 1 part of cryoprotectant solution. Exosomes were lyophilized and then morphology of retrieved exosomes was visualized by TEM while size and concentration were measured by NTA (see FIG. 4). […]

[5] = Freeze-drying apple exosomes using trehalose, LMW HA and their combination (TEM, NTA); assay type: physicochemical; conditions: rehydrated after freeze-drying, FIG. 5
Protocol: For TEM imaging, exosomes are fixed with 4.0% paraformaldehyde (PFA) in sodiumphosphate buffer and stained with 2% neutral uranyl acetate with embedding in uranyl acetate and methylcellulose mixture. Exosomes are viewed with transmission EM using Jeol JEM-1400 (Jeol Ltd., Tokyo, Japan) operating at 80 kV. Images are taken with Gatan Orius SC 1000B CCD-camera (Gatan Inc., USA) with 4008×2672 px image size and no binning.
Particle number and size distribution of the exosome is measured by NTA instrument LM14C (NanoSight LTD., London, UK) equipped with blue (404 nm, 70 mW) laser and sCMOS camera. Data are analysed with Nanosight software v3.0, using threshold 5 and gain 10.
To test the preservation of exosome functionality and integrity during the lyophilization process, two cryoprotectants (trehalose and LMW HA) in four different cryoprotectant combinations were used, namely: 50 mM trehalose, 100 mM trehalose, 5% LMW HA, and 50 mM trehalose +2.5% LMW HA. Lyophilization solutions were prepared using PBS. The overall osmolality of the lyophilization solutions was maintained at 290 mOsm/kg. For the freeze-drying experiments, isolated exosomes (10^10-10^11 particle/ml) were suspended in cryoprotectant solution. 5 ml of each sample was prepared. Each solution was divided into 3 polypropylene microcentrifuge tubes, each tube containing 1.2 ml of lyophilization solution supplied with exosomes. […]

Row | aggregation, size and concentration of lyophilized apple exosomes (result in words) [5] | Compound | collagen production by fibroblasts (result in words) (human dermal fibroblasts [1]) | fibroblast proliferation, lyophilised versus non-lyophilised exosomes (result in words) (human dermal fibroblasts [2]) | relative wound density, lyophilised versus non-lyophilised exosomes (result in words) (human dermal fibroblasts [3]) | exosome concentration, morphology, aggregation after lyophilization (result in words) [4]
1 | – | Hyaluronic acid (LMW) [hyaluronic acid at low-molecular-weight] | positive role | positive role | positive role | –
2 | no exosome aggregation | OC[C@H]1O[C@H](O[C@H]2O[C@H](CO)[C@@H](O)[C@H](O)[C@H]2O)[C@H](O)[C@@H](O)[C@@H]1O [trehalose, Trehalose] | – | – | – | best results as a single component cryoprotectant
